Experimental data taken from patent publication US5084082A, “Soybean plants with dominant selectable trait for herbicide resistance” (priority 1990, dated 1992).

Test system: Williams-NMU-1 M2 seedlings
Test: Hydroponic selection of M2 seeds with Compound 1
Type: in vivo, soybean
Settings: 100 ppb
Procedure: Four Modified Hydropot Solo units were prepared as described in the Detailed Description by filling the planting tanks with a 5 cm layer of pea gravel followed by a 10 cm layer of fine vermiculite. M2 seeds of the William-NMU-1 were densely planted (approx. 16,600 seeds per square meter) by placing the seeds in a single horizontal layer on top of the vermiculite and then covering the seeds with a second level 2.5 cm layer of vermiculite. The nutrient solution reservoir was filled with tap water supplemented with 100 ppb of Compound 1 as the selective agent. Plant tanks were irrigated with the Compound 1 solution for four 30 minute periods per day beginning at 12 midnight, 8 AM, 12 noon, and 4 pm. […] The W20 plant was gently removed from the from the hydroponic planting tank and transplanted into a 20 cm pot containing a standard peat-based potting mixture. […] This observation led the applicant to believe that W20 represented a new class of resistant mutants. W20 was allowed to reach maturity under greenhouse conditions and produce an M3 line that was also referred to as W20.
M2 seeds of the Williams-NMU-1 treatment (Table II) were densely planted (approximately 16,600 seeds Per m2) on top of a level 7 cm layer of granular vermiculite supported by the upper chamber of the planting tank of the previously described large hydroponic selection system. […]

## COc1nc(C)nc(NC(=O)NS(=O)(=O)c2ccccc2Cl)n1 [Compound 1, 2-chloro-N-[[(4-methoxy-6-methyl-1,3,5-triazin-2-yl)amino]carbonyl]benzenesulfonamide]
Modified Hydropot Solo units, twelve days after planting
  effect on surrounding seedlings: lethal to the surrounding seedlings
Large hydroponic unit, 8 days after planting
  effect on background of wild type seedlings: uniformly inhibited
